The values below come from PubChem BioAssay AID220 (DTP/NCI, 2004).

The test system of the assay is CD8F1 mice, subcutaneous mammary adenocarcinoma, T/C%. As to the kind of experiment: NCI In Vivo Anticancer Drug Screen. Data for tumor model Mammary Adenocarcinoma CD8F1 (subcutaneous) in CD8F1. The settings on record: higher = larger tumour. Put shortly: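 Compound-treated versus vehicle-treated mice with transplantable tumors; survival or tumor size compared as T/C.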

[1] abbreviates: endpoint: median tumor weight (est.), dose: 6.25 mg/kg/injection, schedule: Q07DX005 (ip), vehicle: Klucel (hydroxypropylcellulose) (HPC).
The mark [2] stands for this setting: endpoint: median tumor weight (est.), dose: 12.5 mg/kg/injection, schedule: Q07DX005 (ip), vehicle: Klucel (hydroxypropylcellulose) (HPC).
Where [3] appears, read: endpoint: median tumor weight (est.), dose: 25.0 mg/kg/injection, schedule: Q07DX005 (ip), vehicle: Klucel (hydroxypropylcellulose) (HPC).
The mark [4] stands for this setting: endpoint: median tumor weight (est.), dose: 50.0 mg/kg/injection, schedule: Q07DX005 (ip), vehicle: Klucel (hydroxypropylcellulose) (HPC).
[5] abbreviates: endpoint: median tumor weight (est.), dose: 100.0 mg/kg/injection, schedule: Q07DX005 (ip), vehicle: Klucel (hydroxypropylcellulose) (HPC).
The mark [6] stands for this setting: endpoint: median tumor weight (est.), dose: 200.0 mg/kg/injection, schedule: Q07DX005 (ip), vehicle: Klucel (hydroxypropylcellulose) (HPC).
[7] abbreviates: endpoint: median tumor weight (est.), dose: 12.5 mg/kg/injection, schedule: Q07DX005 (ip), vehicle: saline with Tween-80.
[8] abbreviates: endpoint: median tumor weight (est.), dose: 25.0 mg/kg/injection, schedule: Q07DX005 (ip), vehicle: saline with Tween-80.
[9] abbreviates: endpoint: median tumor weight (est.), dose: 100.0 mg/kg/injection, schedule: Q07DX005 (ip), vehicle: saline with Tween-80.
Where [10] appears, read: endpoint: median tumor weight (est.), dose: 200.0 mg/kg/injection, schedule: Q07DX005 (ip), vehicle: saline with Tween-80.
The mark [11] stands for this setting: endpoint: median tumor weight (est.), dose: 400.0 mg/kg/injection, schedule: Q07DX005 (ip), vehicle: Klucel (hydroxypropylcellulose) (HPC).

Where “and” joins values, the source holds several entries; their conditions need not be identical. Equal entries are not always repeated. Results filed as inconclusive are left out.

With `C[C@@H]1C[C@H]2[C@@H]3CCC4=CC(=O)C=C[C@]4(C)[C@@]3(F)[C@@H](O)C[C@]2(C)[C@@]1(O)C(=O)CO`, the T/C by setting is: under setting [1], 88 % of control; under setting [2], 32 % of control; under setting [3], 31 % of control; under setting [4], 12 % of control; under setting [5], 7 % of control.

As for `CC(=O)OCC(=O)[C@@]12OC(C)(C)O[C@@H]1C[C@H]1[C@@H]3CC(C=O)=C4C=C(OCCCl)CC[C@]4(C)[C@@]3(F)[C@@H](O)C[C@@]12C`, the T/C runs as follows: under setting [3], 41 % of control and 62 % of control; under setting [5], 1 % of control and 16 % of control; under setting [6], 1 % of control and 7 % of control; (endpoint: median tumor weight change, dose: 62.0 mg/kg/injection, schedule: Q01DX001 (ip), vehicle: Klucel (hydroxypropylcellulose) (HPC)) 32 % of control; (endpoint: median tumor weight change, dose: 62.5 mg/kg/injection, schedule: Q01DX001 (ip), vehicle: Klucel (hydroxypropylcellulose) (HPC)) 66 % of control.

For the compound `CCCCOC(=O)/C=C(\Br)C(=O)OCCCC`, the T/C is 115 % of control under setting [7]; 95 % of control and 119 % of control under setting [8]; 100 % of control and 119 % of control under setting [9]; 114 % of control under setting [10].

Turning to `NC(=O)c1ncn(C2OC(CO)C(O)C2O)n1` (centres undefined), the T/C runs as follows: (endpoint: mean tumor weight, dose: 12.5 mg/kg/injection, schedule: Q07DX006 (ip), vehicle: saline) 120 % of control; (endpoint: mean tumor weight, dose: 25.0 mg/kg/injection, schedule: Q07DX006 (ip), vehicle: saline) 288 % of control; (endpoint: mean tumor weight, dose: 50.0 mg/kg/injection, schedule: Q07DX006 (ip), vehicle: saline) 60 % of control; (endpoint: mean tumor weight, dose: 100.0 mg/kg/injection, schedule: Q07DX006 (ip), vehicle: saline) 35 % of control; (endpoint: mean tumor weight, dose: 200.0 mg/kg/injection, schedule: Q07DX006 (ip), vehicle: saline) 41 % of control; (endpoint: mean tumor weight, dose: 400.0 mg/kg/injection, schedule: Q07DX006 (ip), vehicle: saline) 27 % of control. Also, the T/C runs as follows: (endpoint: median tumor weight (est.), dose: 12.5 mg/kg/injection, schedule: Q07DX005 (ip), vehicle: saline) 118 % of control; (endpoint: median tumor weight (est.), dose: 25.0 mg/kg/injection, schedule: Q07DX005 (ip), vehicle: saline) 165 % of control; (endpoint: median tumor weight (est.), dose: 50.0 mg/kg/injection, schedule: Q07DX005 (ip), vehicle: saline) 97 % of control; (endpoint: median tumor weight (est.), dose: 100.0 mg/kg/injection, schedule: Q07DX005 (ip), vehicle: saline) 102 % of control; (endpoint: median tumor weight (est.), dose: 200.0 mg/kg/injection, schedule: Q07DX005 (ip), vehicle: saline) 46 % of control; (endpoint: median tumor weight (est.), dose: 400.0 mg/kg/injection, schedule: Q07DX005 (ip), vehicle: saline) 48 % of control.

Take `Cc1ccc(S(=O)(=O)NC(=S)S)cc1`: the T/C runs as follows: under setting [7], 110 % of control; under setting [8], 94 % of control; under setting [9], 91 % of control; under setting [10], 95 % of control; (endpoint: median tumor weight (est.), dose: 400.0 mg/kg/injection, schedule: Q07DX005 (ip), vehicle: saline with Tween-80) 106 % of control.

Turning to `CN(C)N=Nc1ccc(S(N)(=O)=O)cc1`, the T/C is 225 % of control and 117 % of control under setting [2]; 213 % of control and 73 % of control under setting [4]; 72 % of control and 93 % of control under setting [5]; 48 % of control under setting [6]; 22 % of control under setting [11].

In the case of `C=CCNc1ccc(C)cc1`, the T/C is, setting by setting: under setting [1], 73 % of control; under setting [2], 77 % of control; under setting [3], 80 % of control; under setting [4], 57 % of control; under setting [5], 88 % of control; under setting [6], 62 % of control.

As to `Cc1ccc(C2NC(=O)c3ccccc3N2)s1` (centres undefined), the T/C was 82 % of control (endpoint: mean tumor weight, dose: 25.0 mg/kg/injection, schedule: Q07DX005 (ip), vehicle: Klucel (hydroxypropylcellulose) (HPC)); 88 % of control (endpoint: mean tumor weight, dose: 50.0 mg/kg/injection, schedule: Q07DX005 (ip), vehicle: Klucel (hydroxypropylcellulose) (HPC)); 106 % of control (endpoint: mean tumor weight, dose: 100.0 mg/kg/injection, schedule: Q07DX005 (ip), vehicle: Klucel (hydroxypropylcellulose) (HPC)); 105 % of control (endpoint: mean tumor weight, dose: 200.0 mg/kg/injection, schedule: Q07DX005 (ip), vehicle: Klucel (hydroxypropylcellulose) (HPC)); 123 % of control (endpoint: mean tumor weight, dose: 400.0 mg/kg/injection, schedule: Q07DX005 (ip), vehicle: Klucel (hydroxypropylcellulose) (HPC)); 78 % of control under setting [2]. The T/C under setting [3] is 14 % of control and the T/C under setting [4] is 110 % of control.

For the compound `C=C(NC(=O)C(=C)NC(=O)c1csc(C2=NC3c4csc(n4)C4NC(=O)c5csc(n5)C(C(C)(O)C(C)O)NC(=O)C5CSC(=N5)/C(=C/C)NC(=O)C(C(C)O)NC(=O)c5csc(n5)C3(CC2)NC(=O)C(C)NC(=O)C(=C)NC(=O)C(C)NC(=O)C(C(C)CC)NC2C=Cc3c(C(C)O)cc(nc3C2O)C(=O)OC4C)n1)C(N)=O` (centres undefined), the T/C was 72 % of control under setting [1]; 64 % of control and 70 % of control under setting [2]; 83 % of control and 103 % of control under setting [6]; 90 % of control under setting [11].

For the compound `C#CCNC1=C(C)C(=O)C2=C(C1=O)[C@H](COC(N)=O)[C@]1(OC)[C@@H]3N[C@@H]3CN21`, the T/C was 75 % of control (endpoint: median tumor weight change, dose: 16.0 mg/kg/injection, schedule: Q01DX001 (ip), vehicle: distilled water + Tween-80) and 27 % of control (endpoint: median tumor weight change, dose: 31.0 mg/kg/injection, schedule: Q01DX001 (ip), vehicle: distilled water + Tween-80).

With `CNC(=O)OCc1c(COC(=O)NC)c(-c2ccc(Cl)c(Cl)c2)n2c1Cc1ccccc1C2`, the T/C is, setting by setting: (endpoint: median tumor weight change, dose: 125.0 mg/kg/injection, schedule: Q01DX001 (ip), vehicle: distilled water + Tween-80) 77 % of control; (endpoint: median tumor weight change, dose: 250.0 mg/kg/injection, schedule: Q01DX001 (ip), vehicle: distilled water + Tween-80) 67 % of control; (endpoint: median tumor weight change, dose: 500.0 mg/kg/injection, schedule: Q01DX001 (ip), vehicle: distilled water + Tween-80) -12 % of control; (endpoint: median tumor weight change, dose: 1000.0 mg/kg/injection, schedule: Q01DX001 (ip), vehicle: distilled water + Tween-80) -53 % of control; (endpoint: median tumor weight change, dose: 2000.0 mg/kg/injection, schedule: Q01DX001 (ip), vehicle: distilled water + Tween-80) -71 % of control.

Consider `C/C=C\C1OC1(C)c1cc(=O)c2c(C)cc3c(c2o1)C(=O)c1c(O)c(C2CC(C)(N(C)C)C(OC(C)=O)C(C)O2)cc(C2CC(N(C)C)C(O)C(C)O2)c1C3=O` (centres undefined), for which the T/C was 69 % of control (endpoint: median tumor weight change, dose: 0.31 mg/kg/injection, schedule: Q01DX001 (ip), vehicle: saline + alcohol); 85 % of control (endpoint: median tumor weight change, dose: 0.62 mg/kg/injection, schedule: Q01DX001 (ip), vehicle: saline + alcohol); 70 % of control (endpoint: median tumor weight change, dose: 1.25 mg/kg/injection, schedule: Q01DX001 (ip), vehicle: saline + alcohol); 31 % of control (endpoint: median tumor weight change, dose: 2.5 mg/kg/injection, schedule: Q01DX001 (ip), vehicle: saline + alcohol); 34 % of control (endpoint: median tumor weight change, dose: 5.0 mg/kg/injection, schedule: Q01DX001 (ip), vehicle: saline + alcohol); 25 % of control (endpoint: median tumor weight change, dose: 10.0 mg/kg/injection, schedule: Q01DX001 (ip), vehicle: saline + alcohol).

In the case of `CC(=O)OCC1OC([S-])C(OC(C)=O)C(OC(C)=O)C1OC(C)=O.CC[PH+](CC)CC.CC[PH+](CC)CC.[Au].[Au]` (centres undefined), the T/C is, setting by setting: (endpoint: median tumor weight change, dose: 6.25 mg/kg/injection, schedule: Q01DX001 (ip), vehicle: Klucel (hydroxypropylcellulose) (HPC)) 63 % of control; (endpoint: median tumor weight change, dose: 12.5 mg/kg/injection, schedule: Q01DX001 (ip), vehicle: Klucel (hydroxypropylcellulose) (HPC)) 109 % of control.
